Data reported in publication PMC5218480 (PLoS ONE, 2017).

System: MV-4-11 cells
Experiment: Gene expression microarray analysis (Affymetrix PrimeView) and GSEA
Type: cell-based, human
Set-up: RFU PODN (11730768_x_at) / Fold change /veh PODN (11730768_x_at) / RFU LINC00158 (11744669_a_at) / Fold change /veh LINC00158 (11744669_a_at) / RFU DUSP10 (11751237_a_at) / Fold change /veh DUSP10 (11751237_a_at) / RFU ID3 (11757404_x_at) / Fold change /veh ID3 (11757404_x_at) / RFU PLEKHG5 (11737974_s_at) / Fold change /veh PLEKHG5 (11737974_s_at) / RFU LRRC4B (11730491_at) / Fold change /veh LRRC4B (11730491_at) / RFU GIMAP4 (11747438_a_at) / Fold change /veh GIMAP4 (11747438_a_at) / RFU KRT8 (11758183_x_at) / Fold change /veh KRT8 (11758183_x_at) / RFU CNN1 (11734310_a_at) / Fold change /veh CNN1 (11734310_a_at) / RFU VPS37D (11726825_at) / Fold change /veh VPS37D (11726825_at) / RFU C10orf10 (11716522_x_at) / Fold change /veh C10orf10 (11716522_x_at) / RFU KIR2DL2 /// KIR2DL4 /// KIR2DL5A /// KIR2DL5B /// KIR2DS1 /// KIR2DS2 /// KIR2DS3 /// KIR2DS4 /// KIR3DL3 /// KIR3DL3 /// KIR3DS1 (11738374_at) / Fold change /veh KIR2DL2 /// KIR2DL4 /// KIR2DL5A /// KIR2DL5B /// KIR2DS1 /// KIR2DS2 /// KIR2DS3 /// KIR2DS4 /// KIR3DL3 /// KIR3DL3 /// KIR3DS1 (11738374_at) / RFU C1QL1 (11718748_at) / Fold change /veh C1QL1 (11718748_at) / RFU TMPRSS4 (11747572_a_at) / Fold change /veh TMPRSS4 (11747572_a_at) / RFU HAMP (11756126_x_at) / Fold change /veh HAMP (11756126_x_at) / RFU RNFT2 (11725882_a_at) / Fold change /veh RNFT2 (11725882_a_at) / RFU NR4A2 (11747474_a_at) / Fold change /veh NR4A2 (11747474_a_at) / RFU ABCC12 (11746883_a_at) / Fold change /veh ABCC12 (11746883_a_at) / RFU TMEM136 (11760407_x_at) / Fold change /veh TMEM136 (11760407_x_at) / RFU CLDN22 /// WWC2 (11732394_at) / Fold change /veh CLDN22 /// WWC2 (11732394_at) / RFU HLA-DPB1 (11760878_x_at) / Fold change /veh HLA-DPB1 (11760878_x_at) / RFU SPINT1 (11716480_a_at) / Fold change /veh SPINT1 (11716480_a_at) / RFU GAP43 (11754022_s_at) / Fold change /veh GAP43 (11754022_s_at) / RFU A4GNT (11735810_at) / Fold change /veh A4GNT (11735810_at) / RFU PRB3 (11715151_x_at) / Fold change /veh PRB3 (11715151_x_at) / RFU TUBB4B (11761932_at) / Fold change /veh TUBB4B (11761932_at) / RFU CAPN14 (11732068_a_at) / Fold change /veh CAPN14 (11732068_a_at) / RFU TMCC2 (11721928_a_at) / Fold change /veh TMCC2 (11721928_a_at) / RFU IRGQ (11745062_a_at) / Fold change /veh IRGQ (11745062_a_at) / RFU FAM174B (11720279_a_at) / Fold change /veh FAM174B (11720279_a_at) / RFU TMPRSS4 (11748680_a_at) / Fold change /veh TMPRSS4 (11748680_a_at) / RFU FAM212B (11763350_a_at) / Fold change /veh FAM212B (11763350_a_at) / RFU PLEKHG5 (11743358_a_at) / Fold change /veh PLEKHG5 (11743358_a_at) / RFU ZSCAN30 (11745921_a_at) / Fold change /veh ZSCAN30 (11745921_a_at) / RFU CMKLR1 (11741424_a_at) / Fold change /veh CMKLR1 (11741424_a_at) / RFU LOC101060620 /// MAPK8IP1 (11723275_at) / Fold change /veh LOC101060620 /// MAPK8IP1 (11723275_at) / RFU SPTSSB (11747773_x_at) / Fold change /veh SPTSSB (11747773_x_at) / RFU PRSS12 (11739890_at) / Fold change /veh PRSS12 (11739890_at) / RFU BIN1 (11741810_x_at) / Fold change /veh BIN1 (11741810_x_at) / RFU WNT11 (11732464_a_at) / Fold change /veh WNT11 (11732464_a_at) / RFU C10orf10 (11716521_a_at) / Fold change /veh C10orf10 (11716521_a_at) / RFU C5orf56 (11738089_at) / Fold change /veh C5orf56 (11738089_at) / RFU CYB561 (11721691_x_at) / Fold change /veh CYB561 (11721691_x_at) / RFU ANKRD19P (11752326_a_at) / Fold change /veh ANKRD19P (11752326_a_at) / RFU OR2T12 /// OR2T33 /// OR2T8 (11738714_s_at) / Fold change /veh OR2T12 /// OR2T33 /// OR2T8 (11738714_s_at) / RFU VCAN (11748164_a_at) / Fold change /veh VCAN (11748164_a_at) / RFU JSRP1 (11732532_at) / Fold change /veh JSRP1 (11732532_at) / RFU KRTAP10-11 (11738290_x_at) / Fold change /veh KRTAP10-11 (11738290_x_at) / RFU MYO3A (11730013_a_at) / Fold change /veh MYO3A (11730013_a_at) / RFU EBF3 (11725865_a_at) / Fold change /veh EBF3 (11725865_a_at) / RFU CAMK2N1 (11719241_x_at) / Fold change /veh CAMK2N1 (11719241_x_at) / RFU C5orf56 (11738088_a_at) / Fold change /veh C5orf56 (11738088_a_at) / RFU OLFML3 (11715873_a_at) / Fold change /veh OLFML3 (11715873_a_at) / RFU LOC100653217 /// NTM (11731650_a_at) / Fold change /veh LOC100653217 /// NTM (11731650_a_at) / RFU MAPK11 (11762145_a_at) / Fold change /veh MAPK11 (11762145_a_at) / RFU FIZ1 (11724087_x_at) / Fold change /veh FIZ1 (11724087_x_at) / RFU OASL (11726364_x_at) / Fold change /veh OASL (11726364_x_at) / RFU SOX15 (11748057_x_at) / Fold change /veh SOX15 (11748057_x_at) / RFU CD79A (11719716_a_at) / Fold change /veh CD79A (11719716_a_at) / RFU HIST1H1D (11736915_at) / Fold change /veh HIST1H1D (11736915_at) / RFU CASKIN2 (11723855_a_at) / Fold change /veh CASKIN2 (11723855_a_at) / RFU LOC730098 (11760151_x_at) / Fold change /veh LOC730098 (11760151_x_at) / RFU OR4N2 (11742367_at) / Fold change /veh OR4N2 (11742367_at) / RFU PRRT2 (11749266_a_at) / Fold change /veh PRRT2 (11749266_a_at) / RFU SNX32 (11753110_a_at) / Fold change /veh SNX32 (11753110_a_at) / RFU CDHR5 (11726645_a_at) / Fold change /veh CDHR5 (11726645_a_at) / RFU RCAN1 (11760418_a_at) / Fold change /veh RCAN1 (11760418_a_at) / RFU FAM167A (11723789_a_at) / Fold change /veh FAM167A (11723789_a_at) / RFU FAM26E (11764081_at) / Fold change /veh FAM26E (11764081_at) / RFU ISYNA1 (11749810_s_at) / Fold change /veh ISYNA1 (11749810_s_at) / RFU ACY1 (11761880_at) / Fold change /veh ACY1 (11761880_at) / RFU 11764098_at / Fold change /veh 11764098_at / RFU SAMD14 (11745864_x_at) / Fold change /veh SAMD14 (11745864_x_at) / RFU NPB (11741838_a_at) / Fold change /veh NPB (11741838_a_at) / RFU TMPRSS6 (11731388_a_at) / Fold change /veh TMPRSS6 (11731388_a_at) / RFU KRTAP10-2 (11738614_at) / Fold change /veh KRTAP10-2 (11738614_at) / RFU ARHGAP8 /// PRR5-ARHGAP8 (11727945_x_at) / Fold change /veh ARHGAP8 /// PRR5-ARHGAP8 (11727945_x_at) / RFU KRTAP5-7 /// NADSYN1 (11734609_at) / Fold change /veh KRTAP5-7 /// NADSYN1 (11734609_at) / RFU RASL12 (11751679_a_at) / Fold change /veh RASL12 (11751679_a_at) / RFU CDKN2B (11736163_a_at) / Fold change /veh CDKN2B (11736163_a_at) / RFU PRF1 (11729649_at) / Fold change /veh PRF1 (11729649_at) / RFU, ZNF638 /// ZNF638-IT1 / Fold change vs veh, ZNF638 /// ZNF638-IT1 / RFU, PANK3 / Fold change vs veh, PANK3 / RFU, SH3YL1 / Fold change vs veh, SH3YL1 / RFU, ZEB2 / Fold change vs veh, ZEB2 / RFU, NRIP1 / Fold change vs veh, NRIP1 / RFU, PTTG1IP / Fold change vs veh, PTTG1IP / RFU, CAPN2 / Fold change vs veh, CAPN2 / RFU, MED14 / Fold change vs veh, MED14 / RFU, SNORA58 / Fold change vs veh, SNORA58 / RFU, C1orf63 / Fold change vs veh, C1orf63 / RFU, LRRFIP1 / Fold change vs veh, LRRFIP1 / RFU, NDUFAF7 / Fold change vs veh, NDUFAF7 / RFU, SLC12A2 / Fold change vs veh, SLC12A2 / RFU, IBTK / Fold change vs veh, IBTK / RFU, ESF1 / Fold change vs veh, ESF1 / Fold change vs veh, TMEM50B / RFU, TAOK1 / Fold change vs veh, TAOK1 / RFU, ACBD3 / Fold change vs veh, ACBD3 / RFU, TMA16 / Fold change vs veh, TMA16 / RFU, RWDD3 / Fold change vs veh, RWDD3 / RFU, BCAT1 / Fold change vs veh, BCAT1 / RFU, EDEM3 / Fold change vs veh, EDEM3 / RFU, TMEM33 / Fold change vs veh, TMEM33 / RFU, WDR75 / Fold change vs veh, WDR75 / RFU, AHCTF1 / Fold change vs veh, AHCTF1 / RFU, TFRC / Fold change vs veh, TFRC / RFU, ZDHHC17 / Fold change vs veh, ZDHHC17 / RFU, NOM1 / Fold change vs veh, NOM1 / RFU, ARL8B / Fold change vs veh, ARL8B / RFU, ZBTB11 / Fold change vs veh, ZBTB11 / RFU, TAMM41 / Fold change vs veh, TAMM41 / RFU, KIAA1704 /// LOC100996395 / Fold change vs veh, KIAA1704 /// LOC100996395 / RFU, ING1 / Fold change vs veh, ING1 / RFU, TRMT61B / Fold change vs veh, TRMT61B / RFU, FUBP3 / Fold change vs veh, FUBP3 / RFU, TP53 / Fold change vs veh, TP53 / RFU, TNKS2 / Fold change vs veh, TNKS2 / RFU, ZFP14 / Fold change vs veh, ZFP14 / RFU, ACTR2 / Fold change vs veh, ACTR2 / RFU, PPP3R1 / Fold change vs veh, PPP3R1 / RFU, PIK3R1 / Fold change vs veh, PIK3R1 / RFU, HNRNPA1 / Fold change vs veh, HNRNPA1 / RFU, RNF170 / Fold change vs veh, RNF170 / RFU, ZNF28 / Fold change vs veh, ZNF28 / RFU, RNGTT / Fold change vs veh, RNGTT / RFU, OGT / Fold change vs veh, OGT / RFU, BRD1 / Fold change vs veh, BRD1 / RFU, MARS / Fold change vs veh, MARS / RFU, ZNF655 / Fold change vs veh, ZNF655 / RFU, FAHD1 / Fold change vs veh, FAHD1 / RFU, BDP1 / Fold change vs veh, BDP1 / RFU, LRRCC1 / Fold change vs veh, LRRCC1 / RFU, ARID1A / Fold change vs veh, ARID1A / RFU, ZNF146 / Fold change vs veh, ZNF146 / RFU, ZNF330 / Fold change vs veh, ZNF330 / RFU, GPN3 / Fold change vs veh, GPN3 / RFU, C9orf123 / Fold change vs veh, C9orf123 / RFU, N4BP2L2 / Fold change vs veh, N4BP2L2 / RFU, ARFIP1 / Fold change vs veh, ARFIP1 / RFU, FAM179B / Fold change vs veh, FAM179B / RFU, BCL10 / Fold change vs veh, BCL10 / RFU, UHRF1BP1L / Fold change vs veh, UHRF1BP1L / RFU, BET1 / Fold change vs veh, BET1 / RFU, CNOT2 / Fold change vs veh, CNOT2 / RFU, ZNF268 / Fold change vs veh, ZNF268 / Fold change vs veh, ZNF507 / RFU, DGCR2 / Fold change vs veh, DGCR2 / RFU, WDSUB1 / Fold change vs veh, WDSUB1 / Fold change vs veh, HSP90B1 /// MIR3652 / RFU, ADSS / Fold change vs veh, ADSS / RFU, GK / Fold change vs veh, GK / RFU, ZNF148 / Fold change vs veh, ZNF148 / RFU, TAF9 / Fold change vs veh, TAF9 / RFU, SLC1A5 / Fold change vs veh, SLC1A5 / RFU, SLMO2 / Fold change vs veh, SLMO2 / RFU, ABCC4 / Fold change vs veh, ABCC4 / RFU, LOC101060439 /// RAP1B / Fold change vs veh, LOC101060439 /// RAP1B / RFU, RFX7 / Fold change vs veh, RFX7 / RFU, GTPBP10 / Fold change vs veh, GTPBP10 / RFU, CNEP1R1 / Fold change vs veh, CNEP1R1 / RFU, BIVM-ERCC5 /// ERCC5 / Fold change vs veh, BIVM-ERCC5 /// ERCC5 / RFU, ILF3 / Fold change vs veh, ILF3 / RFU 11762660_at / Fold change /veh 11762660_at / RFU VCAN (11757783_s_at) / Fold change /veh VCAN (11757783_s_at) / RFU DDX43 (11728927_at) / Fold change /veh DDX43 (11728927_at) / RFU KRT8 (11758188_x_at) / Fold change /veh KRT8 (11758188_x_at) / RFU NKD1 (11759106_at) / Fold change /veh NKD1 (11759106_at) / RFU SRD5A1 (11742802_a_at) / Fold change /veh SRD5A1 (11742802_a_at) / RFU TPSAB1 /// TPSB2 (11721975_s_at) / Fold change /veh TPSAB1 /// TPSB2 (11721975_s_at) / RFU GSTM3 (11746129_a_at) / Fold change /veh GSTM3 (11746129_a_at) / RFU IL23R (11737362_x_at) / Fold change /veh IL23R (11737362_x_at) / RFU TMEM51 (11727254_a_at) / Fold change /veh TMEM51 (11727254_a_at) / RFU PIWIL2 (11732686_x_at) / Fold change /veh PIWIL2 (11732686_x_at) / RFU ORM1 (11744905_x_at) / Fold change /veh ORM1 (11744905_x_at) / RFU CCDC152 (11743942_at) / Fold change /veh CCDC152 (11743942_at) / RFU ECM1 (11717891_a_at) / Fold change /veh ECM1 (11717891_a_at) / RFU IL23R (11748794_a_at) / Fold change /veh IL23R (11748794_a_at) / RFU TNFAIP8L3 (11732012_x_at) / Fold change /veh TNFAIP8L3 (11732012_x_at) / RFU MBOAT4 (11741988_at) / Fold change /veh MBOAT4 (11741988_at) / RFU 11764193_at / Fold change /veh 11764193_at / RFU TMEM53 (11763286_at) / Fold change /veh TMEM53 (11763286_at) / RFU MAGEB2 (11727129_at) / Fold change /veh MAGEB2 (11727129_at) / RFU TMEM200A (11744735_a_at) / Fold change /veh TMEM200A (11744735_a_at) / RFU CCDC152 (11751479_a_at) / Fold change /veh CCDC152 (11751479_a_at) / RFU FAM211A (11726209_a_at) / Fold change /veh FAM211A (11726209_a_at) / RFU RGS16 (11746705_a_at) / Fold change /veh RGS16 (11746705_a_at) / RFU VCAN (11755009_s_at) / Fold change /veh VCAN (11755009_s_at) / RFU RHOB (11743442_s_at) / Fold change /veh RHOB (11743442_s_at) / RFU RGS16 (11720943_a_at) / Fold change /veh RGS16 (11720943_a_at) / RFU RGS16 (11720944_at) / Fold change /veh RGS16 (11720944_at) / RFU, VPS4B / Fold change vs veh, VPS4B / RFU, CREB1 / Fold change vs veh, CREB1 / RFU, DNAJC13 / Fold change vs veh, DNAJC13 / RFU, GNAQ / Fold change vs veh, GNAQ / RFU, CDK5R1 / Fold change vs veh, CDK5R1 / RFU, ZRANB3 / Fold change vs veh, ZRANB3 / RFU, CUL4A / Fold change vs veh, CUL4A / RFU, CCNY / Fold change vs veh, CCNY / RFU, UFL1 / Fold change vs veh, UFL1 / RFU, COG3 / Fold change vs veh, COG3 / RFU, DIAPH2 / Fold change vs veh, DIAPH2 / RFU, SKA2 / Fold change vs veh, SKA2 / RFU, AFF3 / Fold change vs veh, AFF3 / RFU, LMF1 / Fold change vs veh, LMF1 / RFU, IPO11 / Fold change vs veh, IPO11 / RFU, DFFB / Fold change vs veh, DFFB / RFU, FOXP1 / Fold change vs veh, FOXP1 / RFU, CARD8 / Fold change vs veh, CARD8 / RFU, STRN3 / Fold change vs veh, STRN3 / RFU, ADK / Fold change vs veh, ADK / RFU, RASSF2 / Fold change vs veh, RASSF2 / RFU, WIPF1 / Fold change vs veh, WIPF1 / RFU, LARP1B / Fold change vs veh, LARP1B / RFU, RASA1 / Fold change vs veh, RASA1 / RFU, RB1 / Fold change vs veh, RB1 / RFU, PPFIA1 / Fold change vs veh, PPFIA1 / RFU, MAT2A / Fold change vs veh, MAT2A / RFU, CCT5 / Fold change vs veh, CCT5 / RFU, WDR92 / Fold change vs veh, WDR92 / RFU, CUX1 / Fold change vs veh, CUX1 / RFU, TTC7A / Fold change vs veh, TTC7A / RFU, TMEM135 / Fold change vs veh, TMEM135 / RFU, DEPTOR / Fold change vs veh, DEPTOR / RFU, CPM / Fold change vs veh, CPM / RFU, DNAJB6 / Fold change vs veh, DNAJB6 / RFU, CACNA2D3 / Fold change vs veh, CACNA2D3 / RFU, DTX4 / Fold change vs veh, DTX4 / RFU, TFCP2 / Fold change vs veh, TFCP2 / RFU, GMCL1 /// GMCL1P1 / Fold change vs veh, GMCL1 /// GMCL1P1 / RFU, AEBP2 / Fold change vs veh, AEBP2 / RFU, SNHG1 /// SNORD22 /// SNORD25 /// SNORD26 /// SNORD27 /// SNORD28 /// SNORD29 /// SNORD31 / Fold change vs veh, SNHG1 /// SNORD22 /// SNORD25 /// SNORD26 /// SNORD27 /// SNORD28 /// SNORD29 /// SNORD31 / Fold change (Aza/veh), C12orf56 (ProbeSet 11735607_a_at) / Fold change (ACY-1035/veh), C12orf56 (ProbeSet 11735607_a_at) / Fold change (Aza/veh), FGFR1OP (ProbeSet 11751329_s_at) / Fold change (ACY-1035/veh), FGFR1OP (ProbeSet 11751329_s_at) / Fold change (Aza/veh), VPS36 (ProbeSet 11739960_a_at) / Fold change (ACY-1035/veh), VPS36 (ProbeSet 11739960_a_at) / RFU SYPL1 (11715823_x_at) / Fold change /veh SYPL1 (11715823_x_at) / RFU IGFBP7 (11715501_s_at) / Fold change /veh IGFBP7 (11715501_s_at) / RFU REEP3 (11722064_at) / Fold change /veh REEP3 (11722064_at) / RFU IGLL1 (11728026_x_at) / Fold change /veh IGLL1 (11728026_x_at): dose or concentration left out as unconfirmed
Settings: ProbeSet 11762504_a_at; LIST D

Nc1ncn([C@@H]2O[C@H](CO)[C@@H](O)[C@H]2O)c(=O)n1 [azacitidine]
Fold change vs veh, ZRANB3: 0.82
